Measurements: the supplement of paper PMC10307832

Legend:
Test in all cases: relative viability (nuclei count vs DMSO), 5 days (fraction); higher = more cells survive
Imatinib = compound: Cc1ccc(NC(=O)c2ccc(CN3CCN(C)CC3)cc2)cc1Nc1nccc(-c2cccnc2)n1 [Imatinib]
Outline: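 Viability was defined as treated-well nuclei divided by vehicle-well nuclei, with the median taken over replicate plates. Cells from lung cancer lines sat overnight at 37 °C in 1536-well plates, received five √10-spaced library-drug doses by pinning on vehicle-anchored plates, and grew 5 days without medium change before one-step fixation, permeabilisation and Hoechst staining, 4× imaging and MetaXpress nuclear counts. Only plates with control CV under 25% and at least one doubling were kept.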

Imatinib + Decitabine = compound: Cc1ccc(NC(=O)c2ccc(CN3CCN(C)CC3)cc2)cc1Nc1nccc(-c2cccnc2)n1 [Imatinib] + Nc1ncn([C@H]2C[C@H](O)[C@@H](CO)O2)c(=O)n1 [Decitabine] (partner 2 µM)
Outline: (§1)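 Dosing by pin tool came one day after lung cancer cell lines were seeded in 1536-well plates, using either one drug or a fixed anchor-drug dose plus five library-drug doses (not always all listed) in √10 steps. After 5 days, nuclei were counted on 4× images. Relative viability is treated-well nuclei count divided by vehicle-well nuclei count, and values are medians of duplicate plates.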

Imatinib + Alpelisib = compound: Cc1ccc(NC(=O)c2ccc(CN3CCN(C)CC3)cc2)cc1Nc1nccc(-c2cccnc2)n1 [Imatinib] + Cc1nc(NC(=O)N2CCC[C@H]2C(N)=O)sc1-c1ccnc(C(C)(C)C(F)(F)F)c1 [Alpelisib] (partner 2 µM)
Outline: as §1

Imatinib + Linsitinib = compound: Cc1ccc(NC(=O)c2ccc(CN3CCN(C)CC3)cc2)cc1Nc1nccc(-c2cccnc2)n1 [Imatinib] + C[C@]1(O)C[C@@H](c2nc(-c3ccc4ccc(-c5ccccc5)nc4c3)c3c(N)nccn32)C1 [Linsitinib] (partner 1 µM)
Outline: as §1

Imatinib + Lapatinib = compound: Cc1ccc(NC(=O)c2ccc(CN3CCN(C)CC3)cc2)cc1Nc1nccc(-c2cccnc2)n1 [Imatinib] + CS(=O)(=O)CCNCc1ccc(-c2ccc3ncnc(Nc4ccc(OCc5cccc(F)c5)c(Cl)c4)c3c2)o1 [Lapatinib] (partner 2 µM)
Outline: as §1

Imatinib + Olaparib = compound: Cc1ccc(NC(=O)c2ccc(CN3CCN(C)CC3)cc2)cc1Nc1nccc(-c2cccnc2)n1 [Imatinib] + O=C(c1cc(Cc2n[nH]c(=O)c3ccccc23)ccc1F)N1CCN(C(=O)C2CC2)CC1 [Olaparib] (partner 8 µM)
Outline: as §1

Imatinib + Navitoclax = compound: Cc1ccc(NC(=O)c2ccc(CN3CCN(C)CC3)cc2)cc1Nc1nccc(-c2cccnc2)n1 [Imatinib] + CC1(C)CCC(c2ccc(Cl)cc2)=C(CN2CCN(c3ccc(C(=O)NS(=O)(=O)c4ccc(N[C@H](CCN5CCOCC5)CSc5ccccc5)c(S(=O)(=O)C(F)(F)F)c4)cc3)CC2)C1 [Navitoclax] (partner 0.5 µM)
Outline: as §1

Imatinib + Phenformin = compound: Cc1ccc(NC(=O)c2ccc(CN3CCN(C)CC3)cc2)cc1Nc1nccc(-c2cccnc2)n1 [Imatinib] + N=C(N)NC(=N)NCCc1ccccc1 [Phenformin] (partner 250 µM)
Outline: as §1

Imatinib + Pictilisib = compound: Cc1ccc(NC(=O)c2ccc(CN3CCN(C)CC3)cc2)cc1Nc1nccc(-c2cccnc2)n1 [Imatinib] + CS(=O)(=O)N1CCN(Cc2cc3nc(-c4cccc5[nH]ncc45)nc(N4CCOCC4)c3s2)CC1 [Pictilisib] (partner 1 µM)
Outline: as §1

Imatinib + OSI-027 = compound: Cc1ccc(NC(=O)c2ccc(CN3CCN(C)CC3)cc2)cc1Nc1nccc(-c2cccnc2)n1 [Imatinib] + COc1cccc2cc(-c3nc([C@H]4CC[C@H](C(=O)O)CC4)n4ncnc(N)c34)[nH]c12 [OSI-027] (partner 0.5 µM)
Outline: as §1

Imatinib + Luminespib = compound: Cc1ccc(NC(=O)c2ccc(CN3CCN(C)CC3)cc2)cc1Nc1nccc(-c2cccnc2)n1 [Imatinib] + CCNC(=O)c1noc(-c2cc(C(C)C)c(O)cc2O)c1-c1ccc(CN2CCOCC2)cc1 [Luminespib] (partner 0.01 µM)
Outline: as §1

Imatinib + Tozasertib = compound: Cc1ccc(NC(=O)c2ccc(CN3CCN(C)CC3)cc2)cc1Nc1nccc(-c2cccnc2)n1 [Imatinib] + Cc1cc(Nc2cc(N3CCN(C)CC3)nc(Sc3ccc(NC(=O)C4CC4)cc3)n2)n[nH]1 [Tozasertib] (partner 0.1 µM)
Outline: as §1

Imatinib + Foretinib = compound: Cc1ccc(NC(=O)c2ccc(CN3CCN(C)CC3)cc2)cc1Nc1nccc(-c2cccnc2)n1 [Imatinib] + COc1cc2c(Oc3ccc(NC(=O)C4(C(=O)Nc5ccc(F)cc5)CC4)cc3F)ccnc2cc1OCCCN1CCOCC1 [Foretinib] (partner 0.25 µM)
Outline: as §1

Imatinib + Dasatinib = compound: Cc1ccc(NC(=O)c2ccc(CN3CCN(C)CC3)cc2)cc1Nc1nccc(-c2cccnc2)n1 [Imatinib] + Cc1nc(Nc2ncc(C(=O)Nc3c(C)cccc3Cl)s2)cc(N2CCN(CCO)CC2)n1 [Dasatinib] (partner 0.075 µM)
Outline: as §1

A549
relative viability (Imatinib; 0.02 µM): 1 | relative viability (Imatinib; 0.06325 µM): 0.846 | relative viability (Imatinib; 0.2 µM): 1.19 | relative viability (Imatinib; 0.6325 µM): 0.973 | relative viability (Imatinib; 2 µM): 0.99 | relative viability (Imatinib + Decitabine; first compound 0.02 µM): 0.287 | relative viability (Imatinib + Decitabine; first compound 0.2 µM): 0.355 | relative viability (Imatinib + Decitabine; first compound 0.6325 µM): 0.32 | relative viability (Imatinib + Decitabine; first compound 2 µM): 0.222 | relative viability (Imatinib + Alpelisib; first compound 0.02 µM): 0.793 | relative viability (Imatinib + Alpelisib; first compound 0.06325 µM): 0.841 | relative viability (Imatinib + Alpelisib; first compound 0.6325 µM): 0.722 | relative viability (Imatinib + Alpelisib; first compound 2 µM): 0.949 | relative viability (Imatinib + Linsitinib; first compound 0.02 µM): 0.673 | relative viability (Imatinib + Linsitinib; first compound 0.2 µM): 0.636 | relative viability (Imatinib + Linsitinib; first compound 0.6325 µM): 0.699 | relative viability (Imatinib + Linsitinib; first compound 2 µM): 0.753 | relative viability (Imatinib + Lapatinib; first compound 0.02 µM): 1.09 | relative viability (Imatinib + Lapatinib; first compound 0.06325 µM): 1.13 | relative viability (Imatinib + Lapatinib; first compound 0.2 µM): 1.11 | relative viability (Imatinib + Lapatinib; first compound 0.6325 µM): 1.07 | relative viability (Imatinib + Lapatinib; first compound 2 µM): 0.99 | relative viability (Imatinib + Olaparib; first compound 0.02 µM): 0.472 | relative viability (Imatinib + Olaparib; first compound 0.2 µM): 0.299 | relative viability (Imatinib + Olaparib; first compound 0.6325 µM): 0.307 | relative viability (Imatinib + Olaparib; first compound 2 µM): 0.42 | relative viability (Imatinib + Navitoclax; first compound 0.02 µM): 1.31 | relative viability (Imatinib + Navitoclax; first compound 0.06325 µM): 1.53 | relative viability (Imatinib + Navitoclax; first compound 0.2 µM): 1.55 | relative viability (Imatinib + Navitoclax; first compound 0.6325 µM): 1.18 | relative viability (Imatinib + Navitoclax; first compound 2 µM): 1.17 | relative viability (Imatinib + Phenformin; first compound 0.02 µM): 0.178 | relative viability (Imatinib + Phenformin; first compound 0.2 µM): 0.154 | relative viability (Imatinib + Phenformin; first compound 0.6325 µM): 0.159 | relative viability (Imatinib + Phenformin; first compound 2 µM): 0.135 | relative viability (Imatinib + Pictilisib; first compound 0.02 µM): 0.729 | relative viability (Imatinib + Pictilisib; first compound 0.06325 µM): 0.703 | relative viability (Imatinib + Pictilisib; first compound 0.2 µM): 0.545 | relative viability (Imatinib + Pictilisib; first compound 0.6325 µM): 0.553 | relative viability (Imatinib + Pictilisib; first compound 2 µM): 0.466

NCI-H1623
relative viability (Imatinib; 0.02 µM): 0.97 | relative viability (Imatinib; 0.06325 µM): 0.763 | relative viability (Imatinib; 0.2 µM): 0.814 | relative viability (Imatinib; 0.6325 µM): 0.956 | relative viability (Imatinib; 2 µM): 0.947 | relative viability (Imatinib + OSI-027; first compound 0.02 µM): 0.453 | relative viability (Imatinib + OSI-027; first compound 0.06325 µM): 0.453 | relative viability (Imatinib + OSI-027; first compound 0.2 µM): 0.386 | relative viability (Imatinib + OSI-027; first compound 0.6325 µM): 0.431 | relative viability (Imatinib + OSI-027; first compound 2 µM): 0.417 | relative viability (Imatinib + Luminespib; first compound 0.02 µM): 0.509 | relative viability (Imatinib + Luminespib; first compound 0.06325 µM): 0.522 | relative viability (Imatinib + Luminespib; first compound 0.2 µM): 0.489 | relative viability (Imatinib + Luminespib; first compound 0.6325 µM): 0.569 | relative viability (Imatinib + Luminespib; first compound 2 µM): 0.467 | relative viability (Imatinib + Tozasertib; first compound 0.02 µM): 0.435 | relative viability (Imatinib + Tozasertib; first compound 0.06325 µM): 0.488 | relative viability (Imatinib + Tozasertib; first compound 0.2 µM): 0.401 | relative viability (Imatinib + Tozasertib; first compound 0.6325 µM): 0.451 | relative viability (Imatinib + Tozasertib; first compound 2 µM): 0.416 | relative viability (Imatinib + Foretinib; first compound 0.02 µM): 0.872 | relative viability (Imatinib + Foretinib; first compound 0.06325 µM): 0.811 | relative viability (Imatinib + Foretinib; first compound 0.2 µM): 0.749 | relative viability (Imatinib + Foretinib; first compound 0.6325 µM): 0.788 | relative viability (Imatinib + Foretinib; first compound 2 µM): 0.894 | relative viability (Imatinib + Phenformin; first compound 0.02 µM): 0.623 | relative viability (Imatinib + Phenformin; first compound 0.06325 µM): 0.601 | relative viability (Imatinib + Phenformin; first compound 0.2 µM): 0.535 | relative viability (Imatinib + Phenformin; first compound 0.6325 µM): 0.573 | relative viability (Imatinib + Phenformin; first compound 2 µM): 0.571 | relative viability (Imatinib + Dasatinib; first compound 0.02 µM): 0.552 | relative viability (Imatinib + Dasatinib; first compound 0.06325 µM): 0.539 | relative viability (Imatinib + Dasatinib; first compound 0.2 µM): 0.482 | relative viability (Imatinib + Dasatinib; first compound 0.6325 µM): 0.537 | relative viability (Imatinib + Dasatinib; first compound 2 µM): 0.538
